The source made the active and inactive calls. The calls are words filed in the database; no cut-off is given here.

The nature of test [1]: Antioxidant activity assessed as hydroxyl radical scavenging activity after 5 mins by ESR spectroscopy. Set-up: concentration or dose not given beside the values.
In test [2] the test system is Trypanosoma cruzi. As to the kind of experiment: Antitrypanosomal activity against Trypanosoma cruzi Dm28c epimastigotes assessed as non-viable epimastigotes at 10 umol/L after 4 hrs by MTT assay relative to untreated control. It counts as functional. In general terms: Tetrazolium dyes change colour on reduction, which living cells bring about.
The test system of test [3] is Trypanosoma cruzi. As to the kind of experiment: Antitrypanosomal activity against Trypanosoma cruzi Dm28c epimastigotes assessed as non-viable epimastigotes at 100 umol/L after 4 hrs by MTT assay relative to untreated control. It counts as functional.
Test [4] is described as follows: Antioxidant activity assessed as compound compete with DMPO for hydroxyl radicals by ESR assay. The format is functional.

On to `Cc1ccc2oc(=O)c(C(=O)c3ccc(O)c(O)c3)cc2c1`, for which the figures for the Activity (in test [1]; in the test with Trypanosoma cruzi [2]; with Trypanosoma cruzi [3]) were 82.1%, 27.9% and 47.9%, respectively.
The matching figures for `O=C(c1ccc(O)c(O)c1)c1cc2ccccc2oc1=O`: 84.6%, 23.8% and 38.7%.
In the case of `CC1CS(=O)(=O)CCN1/N=C/c1ccc([N+](=O)[O-])o1` (stereo not drawn) [NIFURTIMOX], the Activity in the test with Trypanosoma cruzi [2] turned out to be 52.5%; in the test on Trypanosoma cruzi [3], 100%.
Consider `O=C(c1ccc(O)c(O)c1)c1cc2c(O)cc(O)cc2oc1=O`, for which, in test [1], the Activity came to 84.2%. In addition, the result in the test with Trypanosoma cruzi [2] and in the test on Trypanosoma cruzi [3] was inactive.
With `O=C(c1ccc(O)c(O)c1)c1cc2cc(Br)cc(O)c2oc1=O`, the figures for the Activity (in test [1]; in the test on Trypanosoma cruzi [2]; in the test on Trypanosoma cruzi [3]) were 90.9%, 9.5% and 24.1%, respectively. In test [4], the outcome was Active.
On to `O=C(c1ccc(O)c(O)c1)c1cc2cc(O)ccc2oc1=O`, for which the figures for the Activity (in test [1]; in the test on Trypanosoma cruzi [2]; in the test on Trypanosoma cruzi [3]) were 84.8%, 18.9% and 46.4%, respectively.

The values are drawn from ChEMBL document CHEMBL3217530, “Synthesis of coumarinchalcone hybrids and evaluation of their antioxidant and trypanocidal properties” (2013).
